Experimental data as given in patent US7727980B2, “Tricyclic androgen receptor modulator compounds and methods” (priority 2001, dated 2010).
Like-named read-outs stand apart in the source and are kept apart here.

What was measured:
[1] = target: T1, human AR (Homo sapiens, UniProt P10275); assay: AR whole cell competitive binding assay (3H-DHT), transfected COS-1 cells; design: expressed in transfected cells; transient transfection with pRShAR; conditions: COS-1 cells, 1 nM 3H-DHT, Cheng-Prusoff from IC50
T1 sequence (P10275 1-920): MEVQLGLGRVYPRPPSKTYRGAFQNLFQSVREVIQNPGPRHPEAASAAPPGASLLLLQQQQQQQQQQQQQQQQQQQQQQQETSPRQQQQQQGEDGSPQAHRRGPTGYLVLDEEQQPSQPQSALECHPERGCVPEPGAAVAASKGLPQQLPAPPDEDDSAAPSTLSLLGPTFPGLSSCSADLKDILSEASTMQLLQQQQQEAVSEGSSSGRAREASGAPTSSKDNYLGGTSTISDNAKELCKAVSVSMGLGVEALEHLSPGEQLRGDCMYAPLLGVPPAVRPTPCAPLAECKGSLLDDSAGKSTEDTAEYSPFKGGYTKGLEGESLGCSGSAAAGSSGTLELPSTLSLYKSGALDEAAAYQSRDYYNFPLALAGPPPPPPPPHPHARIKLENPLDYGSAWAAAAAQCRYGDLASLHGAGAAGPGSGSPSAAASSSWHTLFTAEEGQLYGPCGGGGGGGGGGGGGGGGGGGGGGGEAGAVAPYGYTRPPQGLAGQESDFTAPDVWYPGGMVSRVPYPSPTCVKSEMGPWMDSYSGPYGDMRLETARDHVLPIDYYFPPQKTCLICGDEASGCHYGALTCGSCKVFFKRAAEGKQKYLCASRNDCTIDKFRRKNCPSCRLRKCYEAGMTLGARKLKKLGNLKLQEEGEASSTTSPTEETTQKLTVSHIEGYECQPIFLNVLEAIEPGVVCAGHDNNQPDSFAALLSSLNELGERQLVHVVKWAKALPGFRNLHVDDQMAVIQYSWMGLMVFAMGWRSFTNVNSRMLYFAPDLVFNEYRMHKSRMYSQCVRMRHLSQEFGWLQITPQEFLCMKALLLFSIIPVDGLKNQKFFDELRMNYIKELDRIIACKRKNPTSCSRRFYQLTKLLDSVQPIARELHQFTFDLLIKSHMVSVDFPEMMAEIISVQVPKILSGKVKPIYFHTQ
Procedure: AR Binding: For the whole cell binding assay, COS-1 cells in 96-well microtiter plates containing DMEM-10% FBS were transfected as described above with the following plasmid DNA: pRShAR (2 ng/well), pRS-β-Gal (50 ng/well) and pGEM (48 ng/well). Six hours after transfection, media was removed, the cells were washed with PBS and fresh media was added. The next day, the media was changed to DMEM-serum free to remove any endogenous ligand that might be complexed with the receptor in the cells.
Three replicates were used for each sample. […] The remaining media was removed, the cells were washed three times with PBS to remove unbound ligand and cells were lysed with a Triton X-100-based buffer.
For the saturation analyses, the difference between the total binding and the nonspecific binding, normalized by the β-Gal rate, was defined as specific binding. […] The Ki values were determined by application of the Cheng-Prusoff equation to the IC50 values, where: […]
After correcting for non-specific binding, IC50 values were determined. […] The IC50 value was determined graphically from a log-logit plot of the data. The Ki values were determined by application of the Cheng-Prusoff equation to the IC50 values, the labeled ligand concentration and the Kd of the labeled ligand.

[2] = target: T1, human AR; assay: Co-transfection assay, AR agonist activity, CV-1 cells; assay type: cell-based; design: expressed in transfected cells; host or cells: CV-1 cells (African green monkey kidney fibroblasts), transient transfection with pRShAR; conditions: for AR Agonist CV-1 Cells Efficacy (%): percent maximal response relative to reference agonist DHT
Text: (§1) The co-transfection assay provides a method for identifying functional agonists and partial agonists which mimic, or antagonists which inhibit, the effect of native hormones and quantifying their activity for responsive IR proteins. In this regard, the co-transfection assay mimics an in vivo system in the laboratory. Importantly, activity in the co-transfection assay correlates very well with known in vivo activity, such that the co-transfection assay functions as a qualitative and quantitative predictor of a tested compounds in vivo pharmacology. See, e.g., T. Berger et al. 41 J. Steroid Biochem. Molec.
(§2) In the co-transfection assay, a cloned cDNA for an IR (e.g., human PR, AR or GR) under the control of a constitutive promoter (e.g., the SV 40 promoter) is introduced by transfection (a procedure to induce cells to take up foreign genes) into a background cell substantially devoid of endogenous IRs. This introduced gene directs the recipient cells to make the IR protein of interest. A second gene is also introduced (co-transfected) into the same cells in conjunction with the IR gene. This second gene, comprising the cDNA for a reporter protein, such as firefly luciferase (LUC), controlled by an appropriate hormone responsive promoter containing a hormone response element (HRE). This reporter plasmid functions as a reporter for the transcription-modulating activity of the target IR. Thus, the reporter acts as a surrogate for the products (mRNA then protein) normally expressed by a gene under control of the target receptor and its native hormone.
(§3) The co-transfection assay can detect small molecule agonists or antagonists of target IRs. Exposing the transfected cells to an agonist ligand compound increases reporter activity in the transfected cells. This activity can be conveniently measured, e.g., by increasing luciferase production, which reflects compound-dependent, IR-mediated increases in reporter transcription. […] To detect antagonists, the co-transfection assay is carried out in the presence of a constant concentration of an agonist to the target IR (e.g., progesterone for PR) known to induce a defined reporter signal. Increasing concentrations of a suspected antagonist will decrease the reporter signal (e.g., luciferase production). The co-transfection assay is therefore useful to detect both agonists and antagonists of specific IRs. Furthermore, it determines not only whether a compound interacts with a particular IR, but whether this interaction mimics (agonizes) or blocks (antagonizes) the effects of the native regulatory molecules on target gene expression, as well as the specificity and strength of this interaction.
(§4) CV-1 cells (African green monkey kidney fibroblasts) were cultured in the presence of Dulbecco's Modified Eagle Medium (DMEM) supplemented with 10% charcoal resin-stripped fetal bovine serum then transferred to 96-well microtiter plates one day prior to transfection.
(§5) The reporter plasmid, MTV-LUC, contains the cDNA for firefly luciferase (LUC) under control of the mouse mammary tumor virus (MTV) long terminal repeat, a conditional promoter containing an androgen response element. See e.g., Berger et al. supra. In addition, pRS-β-Gal, coding for constitutive expression of E. coli β-galactosidase (β-Gal), was included as an internal control for evaluation of transfection efficiency and compound toxicity.
(§6) Six hours after transfection, media was removed and the cells were washed with phosphate-buffered saline (PBS). […] Three to four replicates were used for each sample. Transfections and subsequent procedures were performed on a Biomek 1000 automated laboratory work station.
(§7) After 40 hours, the cells were washed with PBS, lysed with a Triton X-100-based buffer and assayed for LUC and β-Gal activities using a luminometer or spectrophotometer, respectively. For each replicate, the normalized response (NR) was calculated as: LUC response/β-Gal rate • where β-Gal rate=β-Gal·1×10^−5/β-Gal incubation time.

[3] = target: T1, human AR; assay: Co-transfection assay, AR antagonist activity in presence of DHT, CV-1 cells; assay type: cell-based; design: expressed in transfected cells; host or cells: CV-1 cells (African green monkey kidney fibroblasts), transient transfection with pRShAR; conditions: for AR Antagonist CV-1 Cells Efficacy (%): percent maximal inhibition, DHT at its EC50 concentration
Text: as §1, §2, §3, §4, §5, §6, §7

[4] = AR Agonist CV-1 Cells Potency (nM), agonist potency or EC50
[5] = AR Antagonist CV-1 Cells Potency (nM), CV-1 cells, antagonist potency or IC50, DHT at its EC50 concentration
[6] = agonist potency or EC50, read-out: AR Agonist CV-1 Cells Potency
[7] = CV-1 cells, antagonist potency or IC50, DHT at its EC50 concentration, read-out: AR Antagonist CV-1 Cells Potency

Row | Compound | Ki ([1]; AR Binding Ki (nM)) [nM] | EC50 [2, 4] [nM] | AR Agonist CV-1 Cells Efficacy (%) [2] | IC50 [3, 5] [nM] | AR Antagonist CV-1 Cells Efficacy (%) ([3]; CV-1 cells) | Ki ([1]; read-out: AR Binding Ki) [nM] | EC50 [2, 6] [nM] | IC50 [3, 7] [nM] | IC50 [3] [nM]
1 | CCC1(CC)CCc2c(ccc3[nH]c(=O)cc(C(F)(F)F)c23)N1 [Compound 105, 5,6,7,8-Tetrahydro-7,7-diethyl-4-trifluoromethylpyridino[3,2-f]quinolin-2(1H)-one] | 45 | 32 | 57% | > 10000 | na (na = not active (i.e. efficacy of <20 and potency of >10,000)) |  |  |  | 
2 | 6-Methyl-4-trifluoromethyl-7H-pyrrolo[3,2-f]quinolin-2(1H)-one [Compound 112] |  |  | na (na = not active (i.e. efficacy of <20 and potency of >10,000)) |  | 75% | 119 | > 10000 | 10 | 
3 | 6,7-Dihydro-8,8-dimethyl-4-(trifluoromethyl)-8H-pyrano[3,2-g]quinolin-2(1H)-one [Compound 202] |  |  | na (na = not active (i.e. efficacy of <20 and potency of >10,000)) |  | 92% |  | > 10000 | 146 | 
4 | O=c1cc(C(F)(F)F)c2cc3c(cc2[nH]1)C1CCCC1N3CC(F)(F)F (racemic) [Compound 120, (±)-6,6a,7,8,9,9a(cis)-Hexahydro-6-(2,2,2-trifluoroethyl)-4-trifluoromethylcyclopentano-[i]pyrrolo[2,3-g]quinolin-2(1H)-one] | 12 | 4.5 | 117% | > 10000 | na (na = not active (i.e. efficacy of <20 and potency of >10,000)) |  |  |  | 
5 | O=c1cc(C(F)(F)F)c2c3c(ccc2[nH]1)N(CC(F)(F)F)CC3c1ccccc1 (racemic) [Compound 141, (±)-5,6-Dihydro-5-phenyl-7-(2,2,2-trifluoroethyl)-4-trifluoromethyl-7H-pyrrolo[3,2-f]quinolin-2(1H)-one] | 97 | 86 | 46% | 34 | 44% |  |  |  | 
6 | CC(C)C1c2c(ccc3[nH]c(=O)cc(C(F)(F)F)c23)N(CC(F)(F)F)C1C (racemic) [Compound 144, (±)-5,6-cis-Dihydro-5-isopropyl-6-methyl-7-(2,2,2-trifluoroethyl)-4-trifluoromethyl-7H-pyrrolo[3,2-f]quinolin-2(1H)-one] |  | > 10000 | na (na = not active (i.e. efficacy of <20 and potency of >10,000)) | 23 | 53% |  |  |  | 
7 | (−)-6,7-Dihydro-6-ethyl-4-trifluoromethyl-8H-pyrano[3,2-g]quinolin-2(1H)-one [Compound 217] |  |  | na (na = not active (i.e. efficacy of <20 and potency of >10,000)) |  | 85% |  | > 10000 | 64 | 
8 | CCc1c(C)c2cc3[nH]c(=O)cc(C(F)(F)F)c3cc2n1CC(F)(F)F [Compound 163, 7-Ethyl-8-methyl-6-(2,2,2-trifluoroethyl)-4-trifluoromethyl-6H-pyrrolo[2,3-g]quinolin-2(1H)-one] |  | > 10000 | na (na = not active (i.e. efficacy of <20 and potency of >10,000)) | 8.2 | 37% |  |  |  | 
9 | CCC1CCOc2cc3c(cc21)c(C(F)(F)F)cc(=O)n3C (racemic) [Compound 220, (±)-6,7-Dihydro-6-ethyl-4-trifluoromethyl-1-methyl-8H-pyrano[3,2-g]quinolin-2(1H)-one] |  | > 10000 | na (na = not active (i.e. efficacy of <20 and potency of >10,000)) | 23 | 67% |  |  |  | 
10 | 6-Ethyl-5-methyl-7-(2,2,2-trifluoroethyl)-4-trifluoromethyl-7H-pyrrolo[3,2-f]quinolin-2(1H)-one [Compound 153] |  |  | 76% |  | na (na = not active (i.e. efficacy of <20 and potency of >10,000)) |  | 7.6 | > 10000 | 
11 | 6,7-Dihydro-8,8,10-trimethyl-4-(trifluoromethyl)-8H-pyrano[3,2-g]quinolin-2(1H)-one [Compound 206] |  |  | na (na = not active (i.e. efficacy of <20 and potency of >10,000)) |  | 90% |  | > 10000 | 175 | 
12 | CC1CC(C)(C)N(CC(F)(F)F)c2ccc3[nH]c(=O)ccc3c21 (stereo not drawn) [Compound 182, 8-(2,2,2-Trifluoroethyl)-5,6,7,8-tetrahydro-5,7,7-trimethylpyrido[3,2-f]quinolin-2(1H)-one] |  |  | na (na = not active (i.e. efficacy of <20 and potency of >10,000)) |  | 81% |  |  |  | 13
